assay: Solubility of estrogen and progestin in solubilizing agents and oils (visual, dropwise solvent addition); details: solvent/oil: Crodamol EO;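 also: about 10 mg estrogen or progestin titrated with solubilizing agent or oil, added dropwise with shaking until fully dissolved, completion judged by eye under light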

Row | SMILES | Solubility
1 | C#C[C@]1(OC(C)=O)CC[C@H]2[C@@H]3CCC4=CC(=NO)CC[C@@H]4[C@H]3CC[C@@]21CC (mixture of isomers) [Norgestimate, norgestimate] | 2.6 mg drug/g solvent or oil
2 | C#C[C@]1(O)CC[C@H]2[C@@H]3CCc4cc(O)ccc4[C@H]3CC[C@@]21C [Ethinyl estradiol, ethinyl estradiol] | 12.94 mg drug/g solvent or oil
3 | C#C[C@]1(OC(C)=O)CC[C@H]2[C@@H]3CCC4=CC(=O)CC[C@@H]4[C@H]3CC[C@@]21C [Norethindrone Acetate, norethindrone acetate] | 14.42 mg drug/g solvent or oil

same assay, conditions: solvent/oil: Crodamol GTCC-PN

Row | SMILES | Solubility
4 | C#C[C@]1(OC(C)=O)CC[C@H]2[C@@H]3CCC4=CC(=NO)CC[C@@H]4[C@H]3CC[C@@]21CC (mixture of isomers) [Norgestimate, norgestimate] | 3.4 mg drug/g solvent or oil
5 | C#C[C@]1(O)CC[C@H]2[C@@H]3CCc4cc(O)ccc4[C@H]3CC[C@@]21C [Ethinyl estradiol, ethinyl estradiol] | 12.03 mg drug/g solvent or oil
6 | C#C[C@]1(OC(C)=O)CC[C@H]2[C@@H]3CCC4=CC(=O)CC[C@@H]4[C@H]3CC[C@@]21C [Norethindrone Acetate, norethindrone acetate] | 17.94 mg drug/g solvent or oil

same assay, conditions: solvent/oil: Crovol A40

Row | SMILES | Solubility
7 | C#C[C@]1(OC(C)=O)CC[C@H]2[C@@H]3CCC4=CC(=NO)CC[C@@H]4[C@H]3CC[C@@]21CC (mixture of isomers) [Norgestimate, norgestimate] | 6.7 mg drug/g solvent or oil
8 | C#C[C@]1(O)CC[C@H]2[C@@H]3CCc4cc(O)ccc4[C@H]3CC[C@@]21C [Ethinyl estradiol, ethinyl estradiol] | 21.37 mg drug/g solvent or oil
9 | C#C[C@]1(OC(C)=O)CC[C@H]2[C@@H]3CCC4=CC(=O)CC[C@@H]4[C@H]3CC[C@@]21C [Norethindrone Acetate, norethindrone acetate] | 15.85 mg drug/g solvent or oil

same assay, conditions: solvent/oil: Ethanol

Row | SMILES | Solubility
10 | C#C[C@]1(OC(C)=O)CC[C@H]2[C@@H]3CCC4=CC(=NO)CC[C@@H]4[C@H]3CC[C@@]21CC (mixture of isomers) [Norgestimate, norgestimate] | 20.5 mg drug/g solvent or oil
11 | C#C[C@]1(O)CC[C@H]2[C@@H]3CCc4cc(O)ccc4[C@H]3CC[C@@]21C [Ethinyl estradiol, ethinyl estradiol] | 206 mg drug/g solvent or oil
12 | C#C[C@]1(OC(C)=O)CC[C@H]2[C@@H]3CCC4=CC(=O)CC[C@@H]4[C@H]3CC[C@@]21C [Norethindrone Acetate, norethindrone acetate] | 49.46 mg drug/g solvent or oil

same assay, conditions: solvent/oil: MAPEG 400 DO PEG ester

Row | SMILES | Solubility
13 | C#C[C@]1(OC(C)=O)CC[C@H]2[C@@H]3CCC4=CC(=NO)CC[C@@H]4[C@H]3CC[C@@]21CC (mixture of isomers) [Norgestimate, norgestimate] | 9.5 mg drug/g solvent or oil
14 | C#C[C@]1(O)CC[C@H]2[C@@H]3CCc4cc(O)ccc4[C@H]3CC[C@@]21C [Ethinyl estradiol, ethinyl estradiol] | 12.08 mg drug/g solvent or oil
15 | C#C[C@]1(OC(C)=O)CC[C@H]2[C@@H]3CCC4=CC(=O)CC[C@@H]4[C@H]3CC[C@@]21C [Norethindrone Acetate, norethindrone acetate] | 9.34 mg drug/g solvent or oil

same assay, conditions: solvent/oil: Myvacet 9-45K

Row | SMILES | Solubility
16 | C#C[C@]1(OC(C)=O)CC[C@H]2[C@@H]3CCC4=CC(=NO)CC[C@@H]4[C@H]3CC[C@@]21CC (mixture of isomers) [Norgestimate, norgestimate] | 4.3 mg drug/g solvent or oil
17 | C#C[C@]1(O)CC[C@H]2[C@@H]3CCc4cc(O)ccc4[C@H]3CC[C@@]21C [Ethinyl estradiol, ethinyl estradiol] | 18.08 mg drug/g solvent or oil
18 | C#C[C@]1(OC(C)=O)CC[C@H]2[C@@H]3CCC4=CC(=O)CC[C@@H]4[C@H]3CC[C@@]21C [Norethindrone Acetate, norethindrone acetate] | 14.47 mg drug/g solvent or oil

same assay, conditions: solvent/oil: Soybean oil

Row | SMILES | Solubility
19 | C#C[C@]1(OC(C)=O)CC[C@H]2[C@@H]3CCC4=CC(=NO)CC[C@@H]4[C@H]3CC[C@@]21CC (mixture of isomers) [Norgestimate, norgestimate] | 1.9 mg drug/g solvent or oil
20 | C#C[C@]1(O)CC[C@H]2[C@@H]3CCc4cc(O)ccc4[C@H]3CC[C@@]21C [Ethinyl estradiol, ethinyl estradiol] | 5.32 mg drug/g solvent or oil
21 | C#C[C@]1(OC(C)=O)CC[C@H]2[C@@H]3CCC4=CC(=O)CC[C@@H]4[C@H]3CC[C@@]21C [Norethindrone Acetate, norethindrone acetate] | 6.41 mg drug/g solvent or oil

same assay, conditions: solvent/oil: Supernatant of soybean oil containing isotretinoin (40 mg isotretinoin particles in 1 gram of oil, particles removed by centrifugation)

Row | SMILES | Solubility
22 | C#C[C@]1(OC(C)=O)CC[C@H]2[C@@H]3CCC4=CC(=NO)CC[C@@H]4[C@H]3CC[C@@]21CC (mixture of isomers) [Norgestimate, norgestimate] | 0.802 mg drug/g solvent or oil
23 | C#C[C@]1(O)CC[C@H]2[C@@H]3CCc4cc(O)ccc4[C@H]3CC[C@@]21C [Ethinyl estradiol, ethinyl estradiol] | 2.89 mg drug/g solvent or oil
24 | C#C[C@]1(OC(C)=O)CC[C@H]2[C@@H]3CCC4=CC(=O)CC[C@@H]4[C@H]3CC[C@@]21C [Norethindrone Acetate, norethindrone acetate] | 3.92 mg drug/g solvent or oil

From patent US20060241078A1, “Pharmaceutical compositions comprising a contraceptive agent in solution and a teratogen” (priority 2005, published 2006)
